Laboratory results as given in PubChem BioAssay AID1996.
Converted amounts (≈) assume the structure as drawn.

Conditions: buffer; pH 7.4; 200.0 µM

Compound | solubility kinetic [µg/mL]
COc1ccc(S(=O)(=O)NC2CCCC2)cc1Cl | > 43.5
CCCNc1ncnc2onc(C)c12 | 22.5 (≈ 117 µM)
Cc1nc(C)c(C(=O)OCC(=O)NCc2ccccc2)s1 | > 45.7
O=C(COC(=O)c1ccccn1)NC(=O)c1ccccc1 | 35 (≈ 123 µM)
Cc1[nH]c2ccc(Cl)cc2c(=O)c1CN1CCCC1 | 38.7 (≈ 140 µM)
Cc1cccc(NC(=O)COC(=O)COc2ccc3c(c2)CCC3)c1 | 5.7 (≈ 16.8 µM)
O=C(CNC(=O)c1ccccc1Cl)c1ccccc1 | 37.6 (≈ 137 µM)
COCCNC(=O)c1cc(Sc2nnc(C)s2)nc2ccccc12 | > 54.1
Cn1ccnc1SCC(=O)c1ccc(OC(F)F)cc1 | > 44.7
CCOC(=O)NC(=O)c1cn(CCNCCO)c(=O)[nH]c1=O | > 47.1
Cc1ccc(S(=O)(=O)N(C)C)cc1NC(=O)Nc1ccccc1F | 1.7 (≈ 4.84 µM)
Cc1nc(NC(=O)CSc2nnc(C3CC3)n2N)c(Cl)cc1Cl | > 56
O=C(NC(CO)C(=O)OCc1ccccc1)OCc1ccccc1 (centres undefined) | > 49.4
Cc1ccn2cc(-c3cc4ccccc4oc3=O)nc2c1 | 3.1 (≈ 11.2 µM)
O=C(CN1C(=O)C2CC=CCC2C1=O)NC1CCCCC1 (centres undefined) | 42.5 (≈ 146 µM)
Cc1cc(C)c(CN2CCC(CO)(CCOc3ccccc3)CC2)cc1C | 38.6 (≈ 105 µM)
COc1ccc(N(C)S(=O)(=O)c2cccc(C(=O)OCC(=O)c3c(N)n(C)c(=O)n(C)c3=O)c2)cc1 | 3.2 (≈ 6.2 µM)
CC(NC(=O)C1CCC(C)(C(=O)O)C1(C)C)c1ccccc1 (centres undefined) | > 45.5
CN(CCC#N)C(=O)COC(=O)c1ccc2c(c1)C(=O)N(C1CCCCC1)C2=O | 16.1 (≈ 40.5 µM)
CC1CCC(NC(=O)CC(NC(N)=O)c2ccccc2Cl)CC1 (centres undefined) | 46.6 (≈ 138 µM)
COC(CNC(=O)c1ccc2nc3ccccc3c(=O)n2c1)OC | 49 (≈ 150 µM)
COc1ccc(CNc2cccc(C)n2)c(O)c1 | 28 (≈ 115 µM)
CSc1ccccc1C(=O)C1CCCN(Cc2ccncc2)C1 (centres undefined) | 41.4 (≈ 127 µM)
Fc1ccc(Nc2ncnc3sccc23)cc1 | 32.8 (≈ 134 µM)

Compound | solubility kinetic [µg/mL]
O=C(NCCN1CCOCC1)c1cc(-c2cccc(O)c2)on1 | > 47.6
CC(=O)Nc1ccc(NC(=O)C(C)OC(=O)[C@@H]2CCCN2C(=O)c2cccs2)cc1 (some centres undefined) | > 64.4
Cc1cccc(C)c1OCCCCN1CCNCC1.O=C(O)C(=O)O | 46
Cc1ccc(C(=O)NCC(=O)NCc2ccccc2F)s1 | > 46
CC(=O)Nc1nnc(S(N)(=O)=O)s1 | > 33.3
O=C(/C=C/c1ccccc1[N+](=O)[O-])OCC(=O)N1CCCC1 | > 45.6
Cc1cc(C)nc(SCC(=O)NC2CCCC2)n1 | > 39.8
CC(=O)Nc1ccc(NC(=O)Nc2cc(C)cc(C)c2)cc1 | 0.8 (≈ 2.69 µM)
CC(C)(CCC(=S)N1CCOCC1)C1CCCCC1 | 4.1 (≈ 14.5 µM)
O=C(OCCN1C(=O)c2ccccc2C1=O)[C@@H]1CC(O)CN1S(=O)(=O)c1ccccc1[N+](=O)[O-] (some centres undefined) | > 73.4
Cc1ccc(NC(=O)COC(=O)CCC2CCCC2)cc1S(=O)(=O)N1CCOCC1 | 15.8 (≈ 36 µM)
CC(C)Oc1ccc(C(=O)Nc2nc3ccccc3[nH]2)cc1 | 1.3 (≈ 4.4 µM)
CC1C(=O)N2CCCc3cc(NC(=O)C4CCCCC4)cc1c32 (centres undefined) | > 46.9
Cc1ccc(CC(=O)Nc2ccc(S(=O)(=O)N3CCOCC3)cc2)cc1 | 7.5 (≈ 20 µM)
Cc1cc(C(=O)OCC(=O)Nc2ccccc2C(F)(F)F)on1 | > 49.2
O=C(NCc1ccc(Cl)cc1)N1CCOCC1 | > 38.2
O=C(NCc1ccco1)/C(=C\c1ccco1)NC(=O)c1ccco1 | 47.3 (≈ 145 µM)
CN(C)CCCNC(NC(=O)/C=C/c1ccccc1)C(Cl)(Cl)Cl (centres undefined) | 44.3 (≈ 117 µM)
O=C(c1ccc(F)cc1)C1CCN(C(=O)c2c(F)cccc2F)CC1 | > 52.1
Cc1cc(C)c(NC(=O)c2ccc3nccnc3c2)c(C)c1 | 41.5 (≈ 142 µM)
Cn1c(SCC(=O)N2CCCC2)nc2ccccc21 | > 41.3
COc1ccccc1-c1c(NC(=O)C(C)C)n(C)c2ccccc2c1=O | > 52.6
Cc1ccccc1Nc1nc(N)nc(CSc2nncn2C)n1 | > 49.3
COc1ccc(/C=N/NC(=O)c2cc[n+]([O-])cc2)cc1 | > 40.7

Compound | solubility kinetic [µg/mL]
O=C(NC12CC3CC(CC(C3)C1)C2)c1cccc(OC(F)F)c1 | 16.7 (≈ 52 µM)
Cn1c(=O)[nH]c(=O)c2c1nc(N1CCCC1)n2CCO | > 41.9
O=C(NN=C1CCCCC1)c1ccccc1-n1cccc1 | > 42.2
CC(=O)Nc1ccc(/C=C2\CCc3ccccc3C2=O)cc1 | 1.2 (≈ 4.12 µM)
CCOC(=O)C1=C(N)Oc2cc(O)ccc2C1c1ccc(C)cc1 (centres undefined) | < 0.7
COc1ccc(CCOC(=O)c2cccc(NC(C)=O)c2)cc1 | > 47
CC(=O)N1CCN(CC(=O)Nc2sccc2C#N)CC1 | 39 (≈ 133 µM)
COc1ccccc1-n1c(C)c(C(C)=O)c2cc(O)ccc21 | 3 (≈ 10.2 µM)
O=Cc1c(NCc2cccc(F)c2)c2ccccc2[nH]c1=O | 19.8 (≈ 66.8 µM)
CC(SC1=NCCN1S(C)(=O)=O)c1ccccc1 (centres undefined) | 42.5 (≈ 149 µM)
O=C(CCCO)NC1Cc2ccccc2C1 | 31.7 (≈ 145 µM)
O=C(O)CCCc1c(-[n+]2ccccc2)[nH]c2ccccc12.[Cl-] | > 47.5
CCCCn1c(NCc2ccncc2)nc2ccccc21 | 39.4 (≈ 141 µM)
Cc1nc2ccccc2c(=O)n1NC(=O)c1c(F)cccc1F | > 47.3
CCc1nc2ccccc2c(C(=O)OCc2nc3ccccc3c(=O)[nH]2)c1C | 14.5 (≈ 38.8 µM)
COC(=O)C(C)Oc1ccc(Cl)c(CN2OCC(C)(C)C2=O)c1 (centres undefined) | > 51.3
CCc1c(C)nc(N)c(C#N)c1-c1ccccc1 | 0.3 (≈ 1.26 µM)
COc1ccc(N=Cc2cc(Cl)ccc2O)cc1Cl | 18 (≈ 60.8 µM)
CC(C)(C)c1ncc(S(=O)(=O)c2ccc(C(F)(F)F)cn2)c(N)n1 | 1.4 (≈ 3.88 µM)
Cc1cc(C)n2c(SCC(=O)Nc3cc(S(=O)(=O)N(C)C)ccc3C)nnc2n1 | > 65.2
CC(C)c1ccc(S(=O)(=O)NC2CCCC2)cc1 | > 40.1
Cc1ccc(Cl)cc1NC(=O)CN1C(=O)NC(C)(C2CC2)C1=O (centres undefined) | > 50.4
NC(=O)c1ccc(NC(=O)COC(=O)C2COc3ccccc3O2)cc1 (centres undefined) | > 53.5
Cc1ccc(OCC(=O)Nc2ccc(S(=O)(=O)N3CCCC3)cc2)cc1 | 0.5 (≈ 1.34 µM)

Compound | solubility kinetic [µg/mL]
COc1ccccc1C(=O)Nc1ccccc1N1CCCCC1 | 1 (≈ 3.22 µM)
NC(=O)c1ccc(Oc2ccc3c(c2)CCC3)c([N+](=O)[O-])c1 | 5.4 (≈ 18.1 µM)
CSCc1ccc(C(=O)OCc2nc3ccccc3s2)o1 | 13.3 (≈ 41.6 µM)
O=C(COC(=O)/C=C/c1cccc(F)c1)Nc1ncccn1 | 27.7 (≈ 91.9 µM)
CCCCOc1ccc(C(=O)NCC(=O)NNC(=O)c2ccco2)cc1 | > 53.9
CN(CCN1CCOCC1)Cc1nc(-c2ccc(Cl)cc2)no1 | 38.1 (≈ 113 µM)
COc1cccc(NC(=O)CN2CCc3ccccc3C2)c1 | 42.7 (≈ 144 µM)
CCc1c(C(=O)Nc2ccccc2C(N)=O)csc1C | 3.6 (≈ 12.5 µM)
COc1cc2c(cc1OC)CN(C(=O)COc1ccccc1C#N)CC2 | 15 (≈ 42.6 µM)
O=C(c1c[nH]c2ccccc12)N1CCN(c2ccccc2)CC1 | > 45.8
O=C1NC(=S)N/C1=C/c1ccc2c(c1)OCO2 | 1.5 (≈ 6.04 µM)
Cn1c(N)c(C(=O)COC(=O)c2cc(S(=O)(=O)N3CCOCC3)ccc2F)c(=O)n(C)c1=O | > 72.7
Cc1nnc(SC(C)C(=O)NCC2CCCO2)s1 (centres undefined) | > 43.1
CSc1nsc(SC)c1C(=O)Nc1ccc(C(C)(C)C)cc1 | < 0.4
CC(=O)N1c2ccccc2C(C)=CC1(C)C | 8.1 (≈ 37.6 µM)
O=C(Nc1nnc(-c2ccco2)o1)c1ccc(N2C(=O)CCC2=O)cc1 | > 52.8
COC(=O)c1cccc(NC(=O)CC2NCCNC2=O)c1 (centres undefined) | 39.6 (≈ 136 µM)
CC(NC(=O)CSc1nc2ccccc2n1C)c1ccccc1 (centres undefined) | > 48.8
Cc1ccc(NC(=O)c2cccc3cccnc23)cc1 | 6.7 (≈ 25.5 µM)
COc1cc2c(cc1OC)CN(C(=O)c1sccc1C)CC2 | 45.8 (≈ 144 µM)
COC(=O)Cc1c(O)ccn(Cc2ccc(OC)c(OC)c2)c1=O | > 50
O=C(COC(=O)CC1CC2CCC1C2)Nc1ccccc1Cl (centres undefined) | 12.9 (≈ 40.1 µM)
O=C(CN1C(=O)NC2(CCCCCC2)C1=O)NCc1ccccc1Cl | > 54.6
CCCN(Cc1ccccc1)C(=S)Nc1cccc(C)c1C | < 0.3

Compound | solubility kinetic [µg/mL]
CC(C(=O)N1CCN=C1c1ccccc1)N1C(=O)c2ccccc2C1=O (centres undefined) | > 52.1
CCN(Cc1ccccc1)C1CCN(Cc2ccccc2)CC1 | 34.2 (≈ 111 µM)
O=C(Nc1ccccc1)NC1CCCCNC1=O (centres undefined) | > 37.1
Cc1ccc(S(=O)(=O)N2CCCCC2)cc1 | 20 (≈ 83.6 µM)
Cc1ccc(/C=C/C(=O)O)cc1S(=O)(=O)N1CCC(Cc2ccccc2)CC1 | 53.2 (≈ 133 µM)
O=C(CN1C(=O)NC2NC(=O)NC21)N/N=C/c1ccc(F)cc1 (centres undefined) | > 48
O=C(NCCO)Nc1ccc(Cl)cc1 | 29 (≈ 135 µM)
Cc1sc(NC(=S)NC(=O)c2ccco2)c(C#N)c1C | 1.1 (≈ 3.6 µM)
COc1ccc(OCC(=O)Nc2ccc3c(c2)CCC3)cc1 | 19.3 (≈ 64.9 µM)
COc1ccc(C(=O)NCC(c2ccco2)N2CCOCC2)cc1OC (centres undefined) | > 54.1
CC1CCc2sc(C(=O)NCc3ccccn3)cc2C1 (centres undefined) | 13 (≈ 45.4 µM)
OCCNC(=S)c1ccccc1 | 25.7 (≈ 142 µM)
CN(C(=O)c1ccc2ccccc2c1)c1ccccn1 | > 39.3
N#Cc1ccccc1OCC(=O)OCC(=O)NC1CC1 | > 41.1
Cc1oncc1-c1csc(-c2ccccc2Cl)n1 | 0.6 (≈ 2.17 µM)
Fc1ccc(-c2nnc(N3CCOCC3)c3ccccc23)cc1F | > 49.1
Cc1cc2oc(=O)cc(C)c2cc1NC(=O)CCl | 39.4 (≈ 148 µM)
Cc1ccc(S(=O)(=O)N(C)c2ccc(OC(=O)c3cccs3)cc2)cc1 | 1.2 (≈ 3.1 µM)
CC1(C)OC(=O)C(=CNc2ccccn2)C(=O)O1 | 28.5 (≈ 115 µM)
O=C(NCC(=O)c1ccccc1)OCc1ccc([N+](=O)[O-])cc1 | 2.5 (≈ 7.95 µM)
CC1CCCC(NC(=O)COC(=O)c2cc3ccccc3oc2=O)C1C (centres undefined) | 33.3 (≈ 93.2 µM)
O=C(CN1CCN(Cc2ccccc2F)C1=O)NC1CCCC1 | > 47.9
Cc1ccc(S(=O)(=O)N(C)C)cc1NC(=O)c1sccc1Cl | 2.4 (≈ 6.69 µM)
